Laboratory results as given in patent US4071627A, “2-Oximino-tetrahydro-1,4-thiazin-5-one compounds and pesticidal carbamate derivatives” (priority 1976, dated 1978).

Assays:
[1] = test system: house flies (Musca domestica, L.); test: Fly Bait Test; type: in vivo; set-up: key: A: excellent control; B: partial control; C: no control; conditions: 500 ppm, 24 hours, adults
Description: (§1) Suspensions of the test compounds were prepared by dissolving one gram of compound in 50 milliliters of acetone in which had been dissolved 0.1 gram (10 percent of the weight of compound) of an alkylphenoxy polyethoxyethanol surfactant, as an emulsifying or dispersing agent. The resulting solution was mixed into 150 milliliters of water to give roughly 200 milliliters of a suspension containing the compound in finely divided form. The thus-prepared stock suspension contained 0.5 percent by weight of test compound. The test concentrations in parts per million by weight employed in the tests described hereinbelow were obtained by appropriate dilutions of the stock suspension with water. The test procedures were as follows:
Four to six day old adult house flies (Musca domestica, L.), reared according to the specifications of the Chemical Specialities Manufacturing Association (Blue Book, McNair-Dorland Co., N.Y. 1954; pages 243-244, 261) under controlled conditions of 80°±5° F. and 50±5 percent relative humidity, were the test insects. The flies were immobilized by anesthetizing with carbon dioxide and 25 immobilized individuals, males and females, were transferred to a cage consisting of a standard food strainer about 5 inches in diameter which was inverted over a wrapping-paper-covered surface. The test compounds were formulated by diluting the stock suspension with a 10 percent (by weight) sugar solution to give a suspension containing 500 parts of test compound per million parts of final formulation, by weight. Ten milliliters of the test formulation were added to a souffle cup containing a 1-inch square of an absorbent cotton pad. This bait cup was introduced and centered on the blotting paper under the food strainer prior to admitting the anesthetized flies. The caged flies were allowed to feed on the bait for 24 hours, at a temperature of 80°±5° F. and the relative humidity of 50±5 percent.
(§2) In these tests the pesticidal activity of the compounds against aphid, mite, Southern Armyworm, Mexican Bean Beetle, and house fly was rated as follows: […]

[2] = test system: Mexican bean beetle (Epilachna varivestis, Muls.); test: Mexican Bean Beetle Leaf Spray Test; type: in vivo; set-up: key: A: excellent control; B: partial control; C: no control; conditions: 500 ppm, three days, fourth instar larvae
Description: as §1
Fourth instar larvae of the Mexican bean beetle (Epilachna varivestis, Muls.), reared on Tendergreen bean plants at a temperature of 80°±5° F. and 50±5 percent relative humidity, were the test insects.
The test compounds were formulated by diluting the stock suspension with water to give a suspension containing 500 parts of test compound per million parts of final formation. Potted Tendergreen bean plants of standard height and age were placed on a revolving turntable and sprayed with 100-110 milliliters of test compound formulated by use of a DeVilbiss spray gun set at 10 psig air pressure. This application, which lasted 25 seconds, was sufficient to wet plants to run-off. As a control, 100-110 milliliters of a water-acetone-emulsifier solution containing no test compound were also sprayed on infested plants. When dry, the paired leaves were separated and each was placed in a 9 centimeter Petri dish lined with moistened filter paper. Five randomly selected larvae were introduced into each dish, and the dishes were closed. The closed dishes were labeled and held at a temperature of 80°±5° F. for three days. Although the larvae could easily consume the leaf within 24 to 48 hours, no more food was added. Larvae which were unable to move the length of the body, even upon stimulation, were considered dead.
as §2

in vivo = conditions: rat, po
Description: Certain of these compositions were also evaluated to determine their peroral toxicity to mammals. The animal selected for this experiment was the rat.

[3] = test system: southern armyworm (Prodenia eridania, (Cram.)); test: Southern Armyworm Leaf Spray Test; type: in vivo; set-up: key: A: excellent control; B: partial control; C: no control; conditions: 500 ppm, three days, larvae
Description: as §1
Larvae of the southern armyworm (Prodenia eridania, (Cram.)), reared on Tendergreen bean plants at a temperature of 80°±5° F. and a relative humidity of 50±5 percent, constituted the test insects.
The test compounds were formulated by diluting the stock suspension with water to give a suspension containing 500 parts of test compound per million parts of final formulation. Potted Tendergreen bean plants of standard height and age were placed on a revolving turntable and sprayed with 100-110 milliliters of test compound formulation by use of a DeVilbiss spray gun set at 10 psig air pressure. This application, which lasted 25 seconds, was sufficient to wet plants to run-off. As a control, 100-110 milliliters of a water-acetone-emulsifier solution containing no test compound were also sprayed on infested plants. When dry, the paired leaves were separated and each one was placed in a 9 centimeter Petri dish lined with moistened filter paper. Five randomly selected larvae were introduced into each dish and the dishes were closed. The closed dishes were labeled and held at 80°-85° F. for three days. Although the larvae cound easily consume the whole leaf within 24 hours, no more food was added. Larvae which were unable to move the length of the body, even upon stimulation by prodding, were considered dead. Percent mortality was […] for various concentration levels.
as §2

[4] = test system: two-spotted mite (Tetranychus urticae Koch); test: Mite Foliage Spray Test; type: in vivo; set-up: key: A: excellent control; B: partial control; C: no control; conditions: 500 ppm, six days, adults and nymphs
Description: as §1
Adults and nymphal stages of the two-spotted mite (Tetranychus urticae Koch), reared on Tengergreen bean plants at 80±5 percent relative humidity, were the test organisms. Infested leaves from a stock culture were placed on the primary leaves of two bean plants 6 to 8 inches in height, growing in a 21/2 inch clay pot. 150-200 Mites, a sufficient number for testing, transferred from the excised leaves to the fresh plants in a period of 24 hours. Following the 24 hour transfer period, the excised leaves were removed from the infested plants. The test compounds were formulated by diluting the stock suspension with water to give a suspension containing 500 parts of test compound per million parts of final formulation. The potted plants (one pot per compound) were placed on a revolving turntable and sprayed with 100-110 milliliters of test compound formulation by use of a DeVilbiss spray gun set at 40 psig. air pressure. This application, which lasted 25 seconds, was sufficient to wet the plants to run-off. As a control, 100-110 milliliters of a water solution containing acetone and emulsifier in the same concentrations as the test compound formulation, but containing no test compound, were also sprayed on infested plants. The sprayed plants were held at 80±5 percent relative humidity for six days, after which a mortality count of motile forms was made. Microscopic examination for motile forms was made on the leaves of the test plants. Any individual which was capable of locomotion upon prodding was considering living.
as §2

[5] = test system: bean aphid (Aphis fabae Scop.); test: Bean Aphid Foliage Spray Test; type: in vivo; set-up: key: A: excellent control; B: partial control; C: no control; conditions: 500 ppm, 24 hours, adults and nymphs
Description: as §1
Adults and nymphal stages of the bean aphid (Aphis fabae Scop.) reared on potted dwarf nasturtium plants at 65°-70° F. and 50-70 percent relative humidity, constituted the test insects. For testing purposes, the number of aphids per pot was standardized to 100-150 by trimming plants containing excess aphids.
The test compounds were formulated by diluting the stock suspension with water to give a suspension containing 500 parts of test compound per million parts of final formulation.
The potted plants (one pot per compound tested) infested with 100-150 aphids, were placed on a revolving turntable and sprayed with 100-110 milliliters of test compound formulated by use of a DeVilbiss spray gun set at 40 psig. air pressure. This application, which lasted 25 seconds, was sufficient to wet the plants to run-off. As a control, 100-110 milliliters of a water-acetone-emulsifier solution containing no test compound were also sprayed on infested plants. After spraying, the pots were placed on their sides on a sheet of white standard mimeograph paper which had been previously ruled to facilitate counting. Temperature and humidity in the test room during the 24 hour holding period were 65°-70° F. and 50-70 percent, respectively. Aphids which fell onto the paper and were unable to remain standing after being uprighted were considered dead. Aphids remaining on the plants were observed closely for movement and those which were unable to move the length of the body upon stimulation by prodding were considered dead. Percent mortality was recorded for various concentration levels.
as §2

SMILES | Biological Activity, House Fly [1] | Biological Activity, Mexican Bean Beetle [2] | LD50 (in vivo) [mg/kg] | Biological Activity, Southern Armyworm [3] | Biological Activity, Mite [4] | Biological Activity, Aphid [5]
CNC(=O)ON=C1SC(C)C(=O)NC1(C)C (stereo not drawn) [2-[O-(Methylcarbamoyl)oximino]-3,3,6-trimethyltetrahydro-1,4-thiazin-5-one] | A | A | 0.884 | B | A | A
CNC(=O)ON=C1SCC(=O)NC1C (stereo not drawn) [2-[O-(Methylcarbamoyl)oximino]-3-methyltetrahydro-1,4-thiazin-5-one] | A | A | 5.66 | A | A | B
CC1C(=NOC(=O)N(C)SC(Cl)(Cl)Cl)SCC(=O)N1C (stereo not drawn) [2-[O-(N-Trichloromethanesulfenyl-N-methylcarbamoyl)oximino]-3,4-dimethyltetrahydro-1,4-thiazin-5-one] | A | A | 3.54 | B | A | B
